Measurements from patent publication US5216175A, “Antimalarial analogs of artemisinin” (SRI International, priority 1990, dated 1993).
In brackets after ≈: the same amount, converted by molar mass.

Key:
P. falciparum W-2 clone = assay: In vitro antimalarial activity, P. falciparum W-2 clone; format: cell-based; conditions: Table 3, tricyclic analogs, W-2 clone
Excerpt: (§1) The analogs have been segregated arbitrarily here into those compounds in which the tetracyclic skeleton is intact (Table 2) and various ring-cleaved analogs (Table 3). The activities of the conventional malaria therapeutics chloroquine, mefloquine, and pyrimethamine is included for comparison.

P. falciparum D-6 clone = assay: In vitro antimalarial activity, P. falciparum D-6 clone; format: cell-based; conditions: Table 3, tricyclic analogs, D-6 clone
Excerpt: as §1

P. falciparum = assay: In vitro antimalarial activity / SAR data, clone not stated; format: cell-based; conditions: of the activity of 12 (artemisinin); clone not stated
Excerpt: as §1

[1] = Brossi et al.; cited from earlier work

SMILES | IC50 (P. falciparum W-2 clone; Plasmodium falciparum, read-out: In vitro IC50 W-2 clone) [µg/mL] | Relative potency (W-2 clone) (P. falciparum W-2 clone) | IC50 (P. falciparum D-6 clone; Plasmodium falciparum, read-out: In vitro IC50 D-6 clone) [µg/mL] | Relative potency (D-6 clone) (P. falciparum D-6 clone) | activity relative to 12 (P. falciparum) | potency relative to artemisinin (12) [1]
C[C@H]1C(=O)O[C@@H]2OC(C)(C)OO[C@@]23CCCC[C@@H]13 (relative stereo) [compound 4582] | 0.0381 (≈ 0.149 µM) | 6 | 0.0222 (≈ 0.0867 µM) | 20 | about 20% | 
CCO[C@H]1O[C@@H]2O[C@@]3(C)CC[C@H]4[C@H](C)CC[C@@H]([C@H]1C)[C@@]24OO3 [arteether] |  |  |  |  |  | higher potency
